# Data from patent publication US20200138966A1, “BIFUNCTIONAL SMALL PEPTIDE FOR AUTOIMMUNE DIABETES” (Board of Supervisors of Louisiana State University and …, priority 2017, published 2020).
# Assays:
# NOD mice = conditions: inhibition of CXCR4 activity; cited from earlier work
# NOD/LtJ T cells = conditions: in conjunction with SDF-1α; cited from earlier work
# NOD/LtJ CD3 T cells = experiment: Hydrodynamic shear detachment assay of T cells off TNF-α activated islet endothelial cells; type: cell-based, mouse
# Text: T cell Robo-1 expression governs SDF-1 mediated detachment: The inventors examined whether Robo-1 immuno-neutralization could affect SDF-1α mediated chemorepulsion of NOD/LtJ CD3 T cells. FIGS. 5-7 show results from hydrodynamic shear detachment assays of T cells off of TNF-α activated islet endothelial cells. FIG. 5 illustration indicates molecular events. FIGS. 6 and 7 illustrate the effect of Robo-1 antibody on T cell detachment at low and higher shear rates (1 and 2.5 dyne/cm^2, respectively).
# NOD/LtJ CD3 T cell = experiment: Shear mediated detachment from parallel plate flow chambers coated with recombinant Fc chimera ICAM-1 and VCAM-1; type: cell-based, mouse; conditions: SDF-1 (250 ng/ml) without Slit-2; FIG. 13
# Method: FIG. 13 is a bar graph showing NOD CD3 T cell shear detachment at 1 dyne/cm^2 to adhesion molecules with SDF-1 (250 ng/ml) ±Slit-2 (20 μg/ml). *p<0.05 between indicated comparisons.
# FIG. 14 is a bar graph showing NOD CD3 T cell shear detachment at 2.5 dyne/cm^2 to adhesion molecules with SDF-1 (250 ng/ml) ±Slit-2 (20 μg/ml). *p<0.05 between indicated comparisons.
# Slit-2 peptide stimulates SDF-1 mediated NOD/LtJ T cell detachment: The inventors next examined whether Slit2 engagement of NOD/LtJ T cell Robo-1 could facilitate SDF-1 mediated chemorepulsion. To study this in an unambiguous way, recombinant Fc chimera endothelial cell adhesion molecules ICAM-1 and VCAM-1 was used to coat the surface of parallel plate flow chambers with or without SDF-1α to precisely control the density and presentation of adhesion molecules and chemokine for adhesive interactions.
# NOD CD3 T cell = experiment: CD3 T cell adhesion to TNF-α activated islet microvascular endothelial cells; type: cell-based, mouse; conditions: SDF-1α 50 ng/ml; NOD compared to NON or C57 T cells; FIG. 2
# human CD3 T cell = experiment: Shear mediated CD3 T cell detachment from fresh frozen human pancreas tissue; type: cell-based; conditions: SDF-1α pretreatment, physiological shear stress
# Text: FIG. 3 is a line graph showing non-diabetic human CD3 T cell shear mediated detachment from fresh frozen human pancreas tissue with or without SDF-1 pretreatment.
# FIG. 4 is a line graph showing T1D human CD3 T cell detachment from fresh frozen human pancreas tissue with or without SDF-1 pretreatment. 3 non-diabetic and 3 T1D subjects <1 yr diagnosis were used for T cell isolations. *p<0.01 w/o vs with SDF-1 treatment.
# SDF-1α stimulates diabetogenic T cell chemorepulsion: a novel mechanism for potential therapeutic intervention in T1D. Chemokines may be differentially expressed in T1D, which play a role in leukocyte infiltration and adhesion. SDF-1α plays a key role in leukocyte adhesion by activating leukocyte integrins to higher affinity state that promotes their clustering. Due to this effect, SDF-1α has been viewed as a universally potent chemoattractant for leukocyte recruitment at low nanomolar concentrations. However, the inventors discovered novel mechanisms of autoimmune T cell chemorepulsion responses in autoimmune NOD/LtJ diabetic mice and in human T1D T cells at SDF-1α concentrations ranging from 1-100 nM.
compound,measurement,setting,value
c1cc(CN2CCCNCCNCCCNCC2)ccc1CN1CCCNCCNCCCNCC1 [AMD3100],adoptive transfer of diabetes,NOD mice,exacerbated adoptive transfer of diabetes
"LNLLSLYDN [LRR-11, Slit-2 peptide containing LRR domain]",attachment of NOD/LtJ T cells from recombinant endothelial cell adhesion molecules,NOD/LtJ T cells,can inhibit attachment
"LNSLVLYGN [LRR-9, Slit-2 peptide containing LRR domain]",attachment of NOD/LtJ T cells from recombinant endothelial cell adhesion molecules,NOD/LtJ T cells,can inhibit attachment
"LQLLLLNAN [LRR-10, Slit-2 peptide containing LRR domain]",attachment of NOD/LtJ T cells from recombinant endothelial cell adhesion molecules,NOD/LtJ T cells,can inhibit attachment
"LRRIDLSNN [LRR-8, Slit-2 peptide containing LRR domain]",attachment of NOD/LtJ T cells from recombinant endothelial cell adhesion molecules,NOD/LtJ T cells,can inhibit attachment
"SDF-1α: chemokine, ligand of CXCR4, used to treat T cells or coat flow chambers (AYWKENKEQ)",NOD T cell shear detachment,"NOD/LtJ CD3 T cells; 1 dyne/cm^2, FIG. 6",stimulates NOD T cell shear detachment
same,NOD T cell shear detachment,"NOD/LtJ CD3 T cells; 2.5 dynes/cm^2, FIG. 7",stimulates NOD T cell shear detachment
same,NOD/LtJ CD3 T cell shear mediated detachment from ICAM-1 and VCAM-1,NOD/LtJ CD3 T cell,even more resistant to shear detachment
same,NOD CD3 T cell adhesion to TNF-α activated islet endothelial cells,NOD CD3 T cell,selectively prevents NOD CD3 T cell adhesion
same,human T1D T cell detachment from fresh human pancreas tissue,"human CD3 T cell; T1D subjects, FIG. 4",selectively stimulated human T1D T cell detachment
same,T cell detachment of non-T1D subjects from fresh human pancreas tissue,"human CD3 T cell; non-diabetic subjects, FIG. 3",not T cell detachment of non-T1D subjects
"TITEIRLEQN [LRR-7, Slit-2 peptide containing LRR domain]",attachment of NOD/LtJ T cells from recombinant endothelial cell adhesion molecules,NOD/LtJ T cells,can inhibit attachment
